Source: ChEMBL document CHEMBL6109137, “Design, Synthesis, Evaluation, and SAR of 5-Phenylisoindoline Derivatives, a Potent Class of Small-Molecule Inhibitors Targeting the Programmed Cell Death-1/Programmed Cell Death-Ligand 1 (PD-1/PD-L1) Interaction” (J Med Chem, 2025)
The source made the active and inactive calls. The calls are words filed in the database; no cut-off is given here.

Tests used:
[1] = molecular target: Programmed cell death protein 1/Programmed cell death 1 ligand 1 (Homo sapiens, UniProt Q9NZQ7); experiment: Inhibition of interaction of PD-1/PD-L1 (unknown origin) by HTRF analysis; format: protein-complex assay
Programmed cell death protein 1/Programmed cell death 1 ligand 1, sequence (Q15116 whole entry): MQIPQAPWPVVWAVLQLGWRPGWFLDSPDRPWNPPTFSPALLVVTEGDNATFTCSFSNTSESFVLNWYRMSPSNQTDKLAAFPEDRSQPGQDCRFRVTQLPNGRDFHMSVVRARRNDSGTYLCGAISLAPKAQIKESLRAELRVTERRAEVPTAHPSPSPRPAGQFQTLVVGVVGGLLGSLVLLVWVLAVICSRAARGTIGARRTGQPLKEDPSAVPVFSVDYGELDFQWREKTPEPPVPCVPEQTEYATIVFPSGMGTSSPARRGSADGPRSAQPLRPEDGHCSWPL
Programmed cell death protein 1/Programmed cell death 1 ligand 1, sequence (Q9NZQ7 whole entry): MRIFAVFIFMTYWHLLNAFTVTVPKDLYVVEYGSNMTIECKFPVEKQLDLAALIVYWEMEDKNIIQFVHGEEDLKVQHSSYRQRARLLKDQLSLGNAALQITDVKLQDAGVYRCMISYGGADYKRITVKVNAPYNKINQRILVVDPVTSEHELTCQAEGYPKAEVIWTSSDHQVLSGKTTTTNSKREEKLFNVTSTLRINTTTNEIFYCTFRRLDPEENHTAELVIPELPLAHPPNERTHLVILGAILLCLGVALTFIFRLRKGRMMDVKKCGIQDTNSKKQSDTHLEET

[2] = Cytotoxicity against human PBMC cells assessed as inhibition of cell viability by CCK8 assay; format: toxicity, cell-based
[3] = molecular target: T1, Programmed cell death protein 1/Programmed cell death 1 ligand 1 (Homo sapiens) (UniProt Q15116+Q9NZQ7); experiment: Inhibition of PD-1/PD-L1 (unknown origin) interaction in human PBMC cells assessed as increase in IFN-gamma level at 100 nM pretreated with anti-CD3/CD28 and PD-L1 followed by compound addition measured after 72 hrs by ELISA; format: cell-based
[4] = molecular target: T1, Programmed cell death protein 1/Programmed cell death 1 ligand 1 (Homo sapiens); experiment: Inhibition of PD-1/PD-L1 (unknown origin) interaction in human PBMC cells assessed as increase in IFN-gamma level at 100 to 1000 nM pretreated with anti-CD3/CD28 and PD-L1 followed by compound addition measured after 72 hrs by ELISA; format: cell-based; details: dose 100-1000 nM
[5] = Cytotoxicity against human PBMC cells assessed as inhibition of cell viability at 50 to 5000 nM by CCK8 assay; format: toxicity, cell-based; details: 5 µM, dose 50-5000 nM

SMILES | IC50 [1] | other results
Cc1c(-c2ccccc2)cccc1-c1ccc2c(c1)CN(C(=O)[C@H](C)N)C2 | 30.4 nM | 
Clc1c(-c2ccc3c(c2)CNC3)cccc1-c1ccc2nonc2c1 | 880 nM | 
Cc1c(-c2ccccc2)cccc1-c1ccc2c(c1)CN(C(=O)[C@@H]1C[C@H](O)CN1)C2 | 84.5 nM | 
N#Cc1c(-c2ccccc2)cccc1-c1ccc2c(c1)CN(C(=O)[C@@H]1CCCCN1)C2 | 64.2 nM | 
N#Cc1c(-c2ccccc2)cccc1-c1ccc2c(c1)CNC2=O | 145 nM | 
O=C([C@@H]1CCCCN1)N1Cc2ccc(-c3cccc(-c4ccccc4)c3Cl)cc2C1 | 11.4 nM | 
O=C([C@@H]1CCCCN1)N1Cc2ccc(-c3cccc(-c4ccc5c(c4)OCCO5)c3Cl)cc2C1 | 26.2 nM | 
C[C@H](N)C(=O)N1Cc2ccc(-c3cccc(-c4ccccc4)c3Cl)cc2C1 | 12.9 nM | 
O=C([C@@H]1CCCN1)N1Cc2ccc(-c3cccc(-c4ccc5c(c4)OCCO5)c3Cl)cc2C1 | 15.6 nM | IC50 [2]: > 5000 nM
N#Cc1c(-c2ccccc2)cccc1-c1ccc2c(c1)C(=O)NC2 | 1520 nM | 
NCC(=O)N1Cc2ccc(-c3cccc(-c4ccccc4)c3Cl)cc2C1 | 90.3 nM | 
Cc1c(-c2ccccc2)cccc1-c1ccc2c(c1)CN(C(=O)[C@@H]1CCCCN1)C2 | 19.3 nM | 
Nc1c(-c2ccccc2)cccc1-c1ccc2c(c1)CNC2 | 194 nM | 
Cc1c(-c2ccccc2)cccc1-c1ccc2c(c1)CN(C(=O)[C@H]1NCCC1O)C2 (stereo not given in full) | 24.2 nM | 
N#Cc1c(-c2ccccc2)cccc1-c1ccc2c(c1)CNC2 | 47.6 nM | 
Clc1c(-c2ccccc2)cccc1-c1ccc2c(c1)CNC2 | 9.4 nM | inhibition [3]: Active; IC50 [2]: > 5000 nM
N#Cc1c(-c2ccccc2)cccc1-c1ccc2c(c1)C(=O)NC2=O | > 10000 nM | 
Cc1c(-c2ccccc2)cccc1-c1ccc2c(c1)CN(C(=O)CN)C2 | 293 nM | 

SMILES | IC50 [1] | other results
Oc1c(-c2ccccc2)cccc1-c1ccc2c(c1)CNC2 | > 10000 nM | 
N#Cc1c(-c2ccccc2)cccc1-c1ccc2c(c1)CN(C(=O)[C@@H]1CCCN1)C2 | 85.7 nM | 
C[C@H](N)C(=O)N1Cc2ccc(-c3cccc(-c4ccc5c(c4)OCCO5)c3C#N)cc2C1 | 24.5 nM | 
N#Cc1c(-c2ccc3c(c2)CNC3)cccc1-c1ccc2c(c1)OCCO2 | 18.5 nM | 
Cl.Clc1c(-c2ccc3c(c2)CNC3)cccc1-c1ccc2c(c1)OCCO2 | 5.9 nM | inhibition [4]: inactive; Activity [5]: Toxic
Cc1c(-c2ccc3c(c2)CNC3)cccc1-c1ccc2c(c1)OCCO2 | 35.8 nM | 
Cc1c(-c2ccccc2)cccc1-c1ccc2c(c1)C(=O)NC2=O | > 10000 nM | 
Cc1c(-c2ccccc2)cccc1-c1ccc2c(c1)CN(C(=O)[C@@H]1CCCN1)C2 | 7.1 nM | 
O=C([C@@H]1CCCN1)N1Cc2ccc(-c3cccc(-c4ccccc4)c3Cl)cc2C1 | 17.9 nM | 
Cc1c(-c2ccccc2)cccc1-c1ccc2c(c1)CN(C(=O)[C@@H](N)CC(=O)O)C2 | 142 nM | 
COc1c(-c2ccccc2)cccc1-c1ccc2c(c1)CNC2 | 115 nM | 
Cc1c(-c2ccccc2)cccc1-c1ccc2c(c1)CN(C(=O)[C@@H](N)CO)C2 | 94.8 nM | 
C[C@H](N)C(=O)N1Cc2ccc(-c3cccc(-c4ccccc4)c3C#N)cc2C1 | 50 nM | 
Cc1c(-c2ccccc2)cccc1-c1ccc2c(c1)CN(C(=O)[C@@H](N)CCCCN)C2 | 539 nM | 
Fc1c(-c2ccccc2)cccc1-c1ccc2c(c1)CNC2 | 95.6 nM | 
COC(=O)C[C@H](N)C(=O)N1Cc2ccc(-c3cccc(-c4ccccc4)c3C)cc2C1 | 416 nM | 
c1ccc(-c2cccc(-c3ccc4c(c3)CNC4)c2)cc1 | > 10000 nM | 
